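Assay format: 96-well plates, 48-hour exposure. Here, GI50 denotes the concentration required for 50% inhibition of growth. TGI: concentration producing complete growth inhibition.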
How the values were obtained:
Assay in all cases: NCI-60 cell line screen, 48 h
HS 578T breast = tested on: HS 578T breast
A498 renal = tested on: A498 renal
HCT-116 colon = tested on: HCT-116 colon
MDA-MB-435 = tested on: MDA-MB-435
MCF7 breast = tested on: MCF7 breast
RPMI-8226 leukemia = tested on: RPMI-8226 leukemia
CAKI-1 renal = tested on: CAKI-1 renal
U251 CNS = tested on: U251 CNS

SMILES | TGI (HS 578T breast) [µM] | TGI (A498 renal) [µM] | TGI (HCT-116 colon) [µM] | GI50 (MDA-MB-435) [µM] | TGI (MDA-MB-435) [µM] | TGI (MCF7 breast) [µM] | GI50 (RPMI-8226 leukemia) [µM] | TGI (RPMI-8226 leukemia) [µM] | TGI (CAKI-1 renal) [µM] | TGI (U251 CNS) [µM] | GI50 (HS 578T breast) [µM] | GI50 (A498 renal) [µM] | GI50 (HCT-116 colon) [µM] | GI50 (MCF7 breast) [µM] | GI50 (CAKI-1 renal) [µM] | GI50 (U251 CNS) [µM]
NC(=O)c1ccc(NN=O)nc1 | > 100 | > 100 | > 100 | > 100 | > 100 | > 100 | > 100 | > 100 | > 100 | > 100 |  |  |  |  |  | 
C[C@H](Nc1ncnc2nc[nH]c12)c1cc2ccc(F)cc2nc1-c1ccccn1 | > 100 | 10.7 | > 100 | > 100 | > 100 | > 100 | > 100 | > 100 | > 100 | > 100 | 18.7 | 1.02 | > 100 | 28.4 | 33.7 | > 100
CCCCCCCCCCCCCC1=NCCN1CCO | 6.54 | 14.6 | 5.27 | 2.97 | 9.07 | 6.89 | 6.5 | > 81.5 | 7.27 | 4.95 | 2.66 | 2.75 | 2.3 | 2.4 | 2.34 | 2.1
CCOC(=O)c1c(C)n2c(=O)cc(C)c3c(O)c(O)cc1c32 | > 100 | > 100 | 35.5 | 14.5 | > 100 | > 100 | 1.92 | 15.1 | > 100 | 30.5 | 25.6 | 27.4 | 18.5 | 6.61 | 2.2 | 4.68
O=[N+]([O-])c1ccc(Sc2ncnc3nc[nH]c23)c2nonc12 | 77 | 20.5 | 12.9 | 3.04 | 17.1 | 12.2 | 2.92 | 48 | 33.7 | 50.5 | 15.4 | 8.46 | 2.59 | 1.72 | 5.97 | 14.8
N/N=C(\C(=O)Nc1ccc(Cl)cc1Cl)C(c1cnc2ccccc2n1)[N+](=O)[O-] (stereo not drawn) | > 100 | > 100 | > 100 |  | > 100 | > 100 |  | > 100 | > 100 | > 100 |  |  |  |  |  | 
CN(C)c1ccc(N=C2C=CC(=[N+](C)C)C=C2)cc1 | 29.1 | > 100 | 17.8 | 6.34 | 29.2 | 17.6 | 3.2 | 11.4 | 41.8 | 15.4 | 3.28 | 2.7 | 4.04 | 4.03 | 12.1 | 3.65
C=C(C)[C@@H]1CC[C@]2(C(=O)O)CC[C@]3(C)[C@H](CC[C@@H]4[C@@]5(C)C[C@@H](CC#Cc6ccc(C(F)(F)F)cc6)[C@H](O)C(C)(C)[C@@H]5CC[C@]43C)[C@@H]12 | > 100 | > 100 | > 100 |  |  | > 100 | 4.01 | > 100 | > 100 | 4.75 | 3.88 | 3.16 | 2.34 | 2.89 | 2.63 | 1.98
Clc1cccc(Cl)c1C1CSc2ccccc2N=C1c1ccccc1 (stereo not drawn) | 57.6 | 26.6 | 3.32 | 3.59 | 13.6 | 11.6 | 2.46 | 7.1 | 29.8 | 4.54 | 6.26 | 13.1 | 1.71 | 0.595 | 10.6 | 2.11
CCN(CC)CCOc1ccccc1/C=C/c1noc2ccccc12 | 32.3 | 31.3 | 19.2 |  |  | 27.9 |  |  | 26.2 |  |  |  |  |  |  | 
COC1CCN(C(=O)c2cc(Cc3n[nH]c(=O)c4ccccc34)ccc2F)CC1 | > 100 | > 100 | > 100 | > 100 | > 100 | > 100 | 60.9 | > 100 | > 100 | > 100 | > 64.5 | > 41.2 | > 100 | 60.8 | 32.3 | > 55.3
c1cc2[nH]ncc2cc1-c1nc2ccc3[nH]ncc3c2c2c1CCCC2 | 13.7 | 1.82 | 10.6 | 0.315 | 3.74 | 11.2 | 0.799 | 4.9 | 5.62 | 15.5 | 1.71 | 0.273 | 0.455 | 0.736 | 0.434 | 2.66
O=[N+]([O-])c1ccccc1N/N=C\c1c[nH]c2ccccc12 | 25.8 |  | > 100 | > 100 | > 100 | > 100 | 47.4 | > 100 | > 100 | 24.2 | 3.9 |  | 13.7 | 0.85 | 3.93 | 10.6
O=C1c2nsnc2C(=O)c2c(F)c(F)c(F)c(F)c21 | 1.96 | 3.57 | 1.36 | 0.846 | 2.14 | 2.19 | 0.374 | 1.63 |  | 2.94 | 0.342 | 1.6 | 0.426 | 0.398 |  | 1.38
O=C(/C(=C\c1ccc([N+](=O)[O-])cc1)S(=O)Cc1ccc(F)cc1)c1ccc(F)cc1 (stereo not drawn) | 75 | 18.6 | 3.07 | 1.84 | 4.09 |  | 1.3 | 4.28 | 5.54 | 3.44 | 3.3 | 6.19 | 1.64 |  | 2.07 | 1.72
Cc1ccc(S(=O)(=O)N2CCSCCN(S(=O)(=O)c3ccc(C)cc3)CCN(S(=O)(=O)c3ccc(C)cc3)CC2)cc1 | > 100 | > 100 | > 100 |  | > 100 | > 100 |  | > 100 |  | 90.1 |  |  |  |  |  | 
NC(N)=N/N=C/c1c(-c2cc(Cl)sc2Cl)nc2sccn12 | 2.77 | 10.2 |  | 4.03 | 15.1 | 2.05 | 0.744 | 1.61 | 16.3 | 1.56 | 0.89 | 1.54 |  | 0.843 | 7.65 | 0.799

— PubChem BioAssay (NCI)
